Source: BindingDB's records for patent US20230365554 (The Broad Institute, 2023)

Legend:
[1] = target: T1, Casein kinase I isoform alpha (Homo sapiens, UniProt P48729); assay: CSNK1A1 Assay 2
Method: CSNK1A1-inhibitory activity of compounds of the present invention in presence of 1 μM adenosine-tri-phosphate (ATP) was quantified employing the CSNK1A1 assay as described in the following paragraphs. In essence, the enzyme activity is measured by quantification of the adenosine-di-phosphate (ADP), which is generated as a co-product of the enzyme reaction, via the ADP-Glo Kinase Assay kit from the company Promega. This detection system works as follows: In a first step the ATP not consumed in the kinase reaction is quantitatively converted to cAMP employing an adenylate cyclase ( ADP-Glo-reagent ), then the adenylate cyclase is stopped and the ADP generated in the kinase reaction converted to ATP which generates in a luciferase-based reaction a glow-luminescence signal ( Kinase Detection Reagent ). Recombinant fusion protein of N-terminal Glutathion-S-Transferase (GST) and full-length human CSNK1A1, expressed by baculovirus infected insect cells and purified via Glutathion affinity chromatography, was purchased from Life Technologies (product no. PV4174) and used as enzyme. As substrate for the kinase reaction the biotinylated peptide biotin-Ahx-KRRRAL-pS-VASLPGL (C-terminus in amide form) was used which can be purchased e.g. from the company Biosyntan (Berlin-Buch, Germany).For the assay 50 nl of a 100 fold concentrated solution of the test compound in DMSO was pipetted into a white 1536-well microtiter plate (Greiner Bio-One, Frickenhausen, Germany), 2 μL of a solution of CSNK1A1 in aqueous assay buffer [50 mM HEPES pH 7.5, 10% (v/v) glycerol, 10 mM MgCl2, 50 mM NaCl, 1 mM dithiothreitol, 0.01% (w/v) bovine serum albumin, 0.01% (v/v) Triton X-100] were added and the mixture was incubated for 15 min at 22 C. to allow pre-binding of the test compounds to the enzyme before the start of the kinase reaction. […]

[2] = target: Casein kinase I isoform delta (Homo sapiens, UniProt P48730); assay: CSNK1D Assay
Sequence of Casein kinase I isoform delta (P48730 whole entry, canonical isoform): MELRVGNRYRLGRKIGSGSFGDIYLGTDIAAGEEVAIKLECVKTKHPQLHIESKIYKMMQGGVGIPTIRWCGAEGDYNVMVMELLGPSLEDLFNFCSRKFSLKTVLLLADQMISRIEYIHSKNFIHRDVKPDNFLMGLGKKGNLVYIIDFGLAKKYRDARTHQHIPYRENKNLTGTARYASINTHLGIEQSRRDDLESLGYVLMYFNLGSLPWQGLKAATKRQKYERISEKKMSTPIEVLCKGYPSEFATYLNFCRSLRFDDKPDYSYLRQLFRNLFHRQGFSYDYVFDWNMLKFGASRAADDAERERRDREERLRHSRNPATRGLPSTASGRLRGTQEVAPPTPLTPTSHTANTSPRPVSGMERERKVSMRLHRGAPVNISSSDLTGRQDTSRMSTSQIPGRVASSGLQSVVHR
Method: CSNK1D-inhibitory activity of compounds of the present invention in presence of 1 μM adenosine-tri-phosphate (ATP) was quantified employing the CSNK1D assay as described in the following paragraphs. In essence, the enzyme activity is measured by quantification of the adenosine-di-phosphate (ADP), which is generated as a co-product of the enzyme reaction, via the ADP-Glo Kinase Assay kit from the company Promega. This detection system works as follows: In a first step the ATP not consumed in the kinase reaction is quantitatively converted to cAMP employing an adenylate cyclase ( ADP-Glo-reagent ), then the adenylate cyclase is stopped and the ADP generated in the kinase reaction converted to ATP which generates in a luciferase-based reaction a glow-luminescence signal ( Kinase Detection Reagent ).Recombinant fusion protein of N-terminal Glutathion-S-Transferase (GST) and full-length human CSNK1D, expressed by baculovirus infected insect cells and purified via Glutathion affinity chromatography, was purchased from Life Technologies (product no. PV3665) and used as enzyme. […]

[3] = target: T1, Casein kinase I isoform alpha; assay: CSNK1A1 Assay 1
Method: CSNK1A1-inhibitory activity of compounds of the present invention in presence of 1 μM adenosine-tri-phosphate (ATP) was quantified employing the CSNK1A1 assay as described in the following paragraphs. In essence, the enzyme activity is measured by quantification of the adenosine-di-phosphate (ADP), which is generated as a co-product of the enzyme reaction, via the ADP-Glo Kinase Assay kit from the company Promega. This detection system works as follows: In a first step the ATP not consumed in the kinase reaction is quantitatively converted to cAMP employing an adenylate cyclase ( ADP-Glo-reagent ), then the adenylate cyclase is stopped and the ADP generated in the kinase reaction converted to ATP which generates in a luciferase-based reaction a glow-luminescence signal ( Kinase Detection Reagent ).Recombinant fusion protein of N-terminal Glutathion-S-Transferase (GST) and full-length human CSNK1A1, expressed by baculovirus infected insect cells and purified via Glutathion affinity chromatography, was purchased from Life Technologies (product no. PV4174) and used as enzyme. […] Subsequently 2.5 μL of the kinase detection reagent (1.2 fold more concentrated than recommended by the producer) were added, the resulting mixture was incubated at 22° C. for 1 h and then the luminescence measured with a suitable measurement instrument (e.g. Viewlux from Perkin-Elmer). […]

T1 sequence (P48729 whole entry, canonical isoform): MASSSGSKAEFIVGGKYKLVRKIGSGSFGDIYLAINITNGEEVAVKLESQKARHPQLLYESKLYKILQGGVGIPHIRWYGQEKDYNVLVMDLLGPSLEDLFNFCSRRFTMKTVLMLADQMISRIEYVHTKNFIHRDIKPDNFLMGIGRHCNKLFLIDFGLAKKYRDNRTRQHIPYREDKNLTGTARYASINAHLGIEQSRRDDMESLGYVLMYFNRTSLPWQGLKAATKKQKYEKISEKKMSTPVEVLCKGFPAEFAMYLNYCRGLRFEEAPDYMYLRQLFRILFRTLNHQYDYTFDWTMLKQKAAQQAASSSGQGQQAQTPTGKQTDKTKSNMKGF

Row | Structure (SMILES) | IC50 [1] [nM] | IC50 [2] [nM] | IC50 [3] [nM]
1 | CC(=O)Nc1cc(-c2[nH]c3c(c2Nc2ccccc2)C(=O)N(C)CC3)ccn1 | 11 |  | 
2 | CC1CN(C)C(=O)c2c1[nH]c(-c1ccnc(NC(=O)C(CC(F)F)c3ccc(F)cc3)c1)c2Nc1ccccc1 (mixture of isomers) [US20230365554, Example 10] | 5.4 | 9.1 | 
3 | CN1CCc2[nH]c(-c3ccnc(NC(=O)[C@@H]4C[C@H]4F)c3)c(Nc3ccccc3)c2C1=O (relative stereo) [WO 2016/120196, Example 25] |  |  | 63
4 | Cc1cn(C)c(=O)c2c(Nc3ccccc3)c(-c3ccnc(NC(=O)Cc4ccc(F)cc4)c3)[nH]c12 [US20230365554, Example 38] | 4.2 | 6.6 | 
